Legend:
[1] = tested on: Zea mays protoplasts; assay: Colony formation from cultured Zea mays protoplasts in the presence of plant growth regulators (auxins) (Example 21); type: cell-based; details: 0.54 million protoplasts per ml, counted after 3 weeks
Procedure: (§1) The plates containing the protoplasts in agarose are placed in the dark at 26 °C. Within 14 days, cell colonies arise from the protoplasts. The agarose containing the colonies is transferred to the surface of a 9 cm diameter petri dish containing 30 ml of N6 medium with 2 mg/liter 2,4-D, solidified with 0.24% w/v Gelrite^R (2N6). The colonies are cultured to give callus. The callus is cultured further in the dark at 26 °C and callus pieces subcultured every 2 weeks onto fresh N6 medium containing 2 mg/liter 2,4-D (solidified with 0.24% w/v Gelrite^R).
Protoplasts are resuspended in the last step of example 3 in 6/7 strength KMC solution at 5 million per ml.
Aliquots of protoplast suspension are placed in 6cm diameter petri dishes at room temperature. 2 ml of KM medium containing 1.2% w/v SeaPlaque^R agarose, and 2,4-D, Picloram, Dicamba or para-Chlorophenoxyacetic acid (pCPA) to give the correct plant growth regulator concentrations is added. The final protoplast density used is 0.54 million per ml. The agarose and protoplasts are mixed well, and the medium allowed to gel.
The dishes are cultured as described in example 10. After a period of 3 weeks, macroscopic colonies arising in the dishes are counted.

[2] = tested on: Zea mays protoplasts; assay: Colony formation from Zea mays protoplasts with DMSO and O-acetyl-salicylic acid in the presence of 2,4-D (Example 20); type: cell-based; details: for number of formed colonies: no additions, 0.75 million protoplasts per ml, counted after 3 weeks
Procedure: as §1
Protoplasts are resuspended in the last step of example 3 in 6/7 strength KMC solution at 7.5 million per ml. The O-acetyl-salicylic acid is dissolved at 2.5 mg/ml in KM medium. The solution is filter sterilized. The O-acetyl-salicylic acid is then added to the culture medium immediately before use. Aliquots of protoplast suspension are placed in 6 cm diameter petri dishes at room temperature. 3 ml of KM medium containing 1.2% w/v SeaPlaque^R agarose, 2,4-D and O-acetyl salicylic acid is added so as to give the correct 2,4-D and O-acetyl-salicylic acid concentrations and a protoplast density of 0.5 million per ml. The agarose and protoplasts are mixed well, and the medium allowed to gel.
The protoplasts are prepared and plated at 0.75 million per ml as described in example 18, using 1 ml of medium per 3.5 cm diameter petri dish. O-acetyl-salicylic acid is included in the medium. The O-acetyl-salicylic acid is dissolved in DMSO and then added to the medium before plating of the protoplasts. To obtain a solution in DMSO, 1 g of O-acetyl-salicylic acid is dissolved in 10 ml DMSO, and added to 90 ml distilled water. The solution is then filter sterilized before use.
The dishes are cultured as described in example 10. After a period of 3 weeks, macroscopic colonies arising in the dishes are counted. […]

[3] = plant growth regulator concentration 0.1 mg/liter
[4] = plant growth regulator concentration 1 mg/liter
[5] = plant growth regulator concentration 10 mg/liter

Compound	number of colonies formed [1, 3]	number of colonies formed [1, 4]	number of colonies formed [1, 5]	number of formed colonies ([2]; 2,4-D 0.1 mg/liter)	number of formed colonies ([2]; 2,4-D 0.3 mg/liter)	number of formed colonies ([2]; 2,4-D 1.0 mg/liter)	colony forming efficiency ([2]; DMSO alone, 1% v/v)	effect on the stimulatory activity of O-acetyl-salicylic acid ([2]; O-acetyl-salicylic acid dissolved in DMSO)
O=C(O)COc1ccc(Cl)cc1 [pCPA, para-chlorophenoxyacetic acid]	52	0	0	–	–	–	–	–
O=C(O)COc1ccc(Cl)cc1Cl [2,4-D, 2,4-dichlorophenoxyacetic acid]	140	0	0	1	2	45	–	–
C[S+](C)[O-] [DMSO]	–	–	–	–	–	–	no significant increase or decrease	potentiates the stimulatory activity of the O-acetyl-salicylic acid
COc1c(Cl)ccc(Cl)c1C(=O)O [dicamba, 3,6-dichloro-2-methoxy benzoic acid]	62	288	0	–	–	–	–	–

Reference: EP0513849B1, “Method of preparing transgenic Zea mays plants regenerated from protoplasts or protoplast-derived cells” (Novartis AG, priority 1987, dated 1988)
